The record followed here is patent publication US11760722B2 (priority 2022, dated 2023).

This assay relates to SARS-CoV-2 replicon. Put plainly: microbe, parasite or virus in culture. The format is cell-based.
Where [1] appears, read: Severe acute respiratory syndrome coronavirus 2, Huh-7, 24 h; read-out: Replicon EC50.

Values joined by “and” are separate entries in the source; they are usually repeats but may differ in a detail not shown here. Equal entries are not always repeated. Where two headings read alike, the source gives them in different places.

Broadly, the EC50 is the concentration at which the effect is half-maximal. `CC(C)(C)[C@H](NS(=O)(=O)c1ccc(C(F)(F)F)cc1)C(=O)N1C[C@H]2[C@@H]([C@H]1C(=O)N[C@H](C#N)C[C@@H]1CCNC1=O)C2(C)C` [Compound 44]: the EC50 (read-out: Replicon EC50) is over 30000 nM.
`CC(C)(C)[C@H](NC(=S)Nc1cccc(C(F)(F)F)c1)C(=O)N1C[C@H]2[C@@H]([C@H]1C(=O)N[C@H](C#N)C[C@@H]1CCNC1=O)C2(C)C` [Compound 52]: the EC50 under setting [1] amounted to 410 nM.
For `CC(C)(C)NC(=S)N[C@H](C(=O)N1C[C@H]2[C@@H]([C@H]1C(=O)N[C@H](C#N)C[C@@H]1CCNC1=O)C2(C)C)C(C)(C)C` [Compound 56], the EC50 (Severe acute respiratory syndrome coronavirus 2, Huh-7, 24 h, read-out: Replicon EC50) was found to be 370 nM.
With `CN1CCCC1C(=O)N[C@H](C(=O)N1C[C@H]2[C@@H]([C@H]1C(=O)N[C@H](C#N)C[C@@H]1CCNC1=O)C2(C)C)C(C)(C)C` (stereo partly shown) [Compound 58], the EC50 under setting [1] was 4720 nM.
Consider `CNC(C)(C)C(=O)N[C@H](C(=O)N1C[C@H]2[C@@H]([C@H]1C(=O)N[C@H](C#N)C[C@@H]1CCNC1=O)C2(C)C)C(C)(C)C` [Compound 59], for which the concentration for a half-maximal effect (EC50) under setting [1] is 16200 nM.
Still for that read-out and setting: next, `CC(C)(C)OC(=O)N(C(=O)N1C[C@H]2[C@@H]([C@H]1C(=O)N[C@H](C#N)C[C@@H]1CCNC1=O)C2(C)C)[C@@H]1C[C@H]1C(F)F` [Compound 60]: over 30000 nM; `C=CC(=O)N[C@H](C(=O)N1C[C@H]2[C@@H]([C@H]1C(=O)N[C@H](C#N)C[C@@H]1CCNC1=O)C2(C)C)C(C)(C)C` [Compound 61]: 2740 nM.
The same measure, in the same setting: under `CC(C)(C)[C@H](NS(=O)(=O)N1CC2CC1C2)C(=O)N1C[C@H]2[C@@H]([C@H]1C(=O)N[C@H](C#N)C[C@@H]1CCNC1=O)C2(C)C` [Compound 62] stands 1490 nM.
Still for that read-out and setting: next, `CC(C)(C)[C@H](NC(=O)C1CC2(CCC2)C1)C(=O)N1C[C@H]2[C@@H]([C@H]1C(=O)N[C@H](C#N)C[C@@H]1CCNC1=O)C2(C)C` [Compound 63]: 730 nM; `CC(C)(C)[C@H](NC(=O)CS(C)(=O)=O)C(=O)N1C[C@H]2[C@@H]([C@H]1C(=O)N[C@H](C#N)C[C@@H]1CCNC1=O)C2(C)C` [Compound 64]: 990 nM.
As for `CC1(C(=O)N[C@H](C(=O)N2C[C@H]3[C@@H]([C@H]2C(=O)N[C@H](C#N)C[C@@H]2CCNC2=O)C3(C)C)C(C)(C)C)CCCN1` (stereo partly shown) [Compound 65], the EC50 under setting [1] was 18700 nM.
As for `COC1(CC(=O)N[C@H](C(=O)N2C[C@H]3[C@@H]([C@H]2C(=O)N[C@H](C#N)C[C@@H]2CCNC2=O)C3(C)C)C(C)(C)C)CCC1` [Compound 67], under setting [1], the EC50 was over 30000 nM.
Same read-out and setting: under `CC(C)(C)[C@H](NC(=O)CC12CC(C(F)(F)F)(C1)C2)C(=O)N1C[C@H]2[C@@H]([C@H]1C(=O)N[C@H](C#N)C[C@@H]1CCNC1=O)C2(C)C` [Compound 68] stands 1920 nM.
For `COC12CCC(C(=O)N[C@H](C(=O)N3C[C@H]4[C@@H]([C@H]3C(=O)N[C@H](C#N)C[C@@H]3CCNC3=O)C4(C)C)C(C)(C)C)(CC1)CC2` [Compound 69], under setting [1], the EC50 was 10300 nM.
`Cc1csc(S(=O)(=O)N[C@H](C(=O)N2C[C@H]3[C@@H]([C@H]2C(=O)N[C@H](C#N)C[C@@H]2CCNC2=O)C3(C)C)C(C)(C)C)c1` [Compound 112]: the EC50 reads like this: under setting [1], 62 nM; (read-out: Replicon EC50) 86 nM.
In the case of `C#CCC(=O)N[C@H](C(=O)N1C[C@H]2[C@@H]([C@H]1C(=O)N[C@H](C#N)C[C@@H]1CCNC1=O)C2(C)C)C(C)(C)C` [Compound 136], the EC50 by setting is: under setting [1], 300 nM; (read-out: Replicon EC50) 320 nM and 420 nM and 540 nM.
For `CC(C)(C)[C@H](NS(=O)(=O)c1ccsc1)C(=O)N1C[C@H]2[C@@H]([C@H]1C(=O)N[C@H](C#N)C[C@@H]1CCNC1=O)C2(C)C` [Compound 139], the EC50 under setting [1] was 140 nM and the EC50 (read-out: Replicon EC50) came out at 160 nM.
Take `CCOc1ccccc1S(=O)(=O)N[C@H](C(=O)N1C[C@H]2[C@@H]([C@H]1C(=O)N[C@H](C#N)C[C@@H]1CCNC1=O)C2(C)C)C(C)(C)C` [Compound 143]: the EC50 was 65 nM under setting [1] and 130 nM (read-out: Replicon EC50).
Taken in the same sequence, the figures for `CC(C)(C)[C@H](NC(=O)C(F)(F)OCC(F)(F)F)C(=O)N1C[C@H]2[C@@H]([C@H]1C(=O)N[C@H](C#N)C[C@@H]1CCNC1=O)C2(C)C` [Compound 144] were 110 nM and 180 nM.
Taken in the same sequence, the figures for `CC(C)(C)[C@H](NC(=O)c1cccc(S(F)(F)(F)(F)F)c1)C(=O)N1C[C@H]2[C@@H]([C@H]1C(=O)N[C@H](C#N)C[C@@H]1CCNC1=O)C2(C)C` [Compound 145] were 3960 nM and 4000 nM.
Taken in the same sequence, the figures for `CC(C)(C)[C@H](NC(=O)C(F)(F)C(F)(F)C(F)(F)C(F)(F)F)C(=O)N1C[C@H]2[C@@H]([C@H]1C(=O)N[C@H](C#N)C[C@@H]1CCNC1=O)C2(C)C` [Compound 146] were 80 nM and 85 nM.
For the compound `CC(C)(C)[C@H](NC(=O)c1ccc(S(F)(F)(F)(F)F)cc1)C(=O)N1C[C@H]2[C@@H]([C@H]1C(=O)N[C@H](C#N)C[C@@H]1CCNC1=O)C2(C)C` [Compound 147], under setting [1], the EC50 is over 10000 nM.
Regarding `Cc1c(S(=O)(=O)N[C@H](C(=O)N2C[C@H]3[C@@H]([C@H]2C(=O)N[C@H](C#N)C[C@@H]2CCNC2=O)C3(C)C)C(C)(C)C)sc2ccc(F)cc12` [Compound 148], the EC50 under setting [1] stood at 16 nM.
On the same count and under the same terms, under `CC(C)(C)[C@H](NC(=O)CC(C(F)(F)F)C(F)(F)F)C(=O)N1C[C@H]2[C@@H]([C@H]1C(=O)N[C@H](C#N)C[C@@H]1CCNC1=O)C2(C)C` [Compound 149] stands 240 nM.
For the compound `CN([C@H](C(=O)N1C[C@H]2[C@@H]([C@H]1C(=O)N[C@H](C#N)C[C@@H]1CCNC1=O)C2(C)C)C(C)(C)C)S(=O)(=O)c1ccc2ccccc2c1` [Compound 150], under setting [1], the EC50 came to 2910 nM.
Same read-out and setting: next, `Cc1cc(C)c(S(=O)(=O)N[C@H](C(=O)N2C[C@H]3[C@@H]([C@H]2C(=O)N[C@H](C#N)C[C@@H]2CCNC2=O)C3(C)C)C(C)(C)C)c(C)c1` [Compound 152]: 65 nM; `CCN([C@H](C(=O)N1C[C@H]2[C@@H]([C@H]1C(=O)N[C@H](C#N)C[C@@H]1CCNC1=O)C2(C)C)C(C)(C)C)S(=O)(=O)c1ccc(OC)cc1` [Compound 153]: 2110 nM.
On the same count and under the same terms, under `CN([C@H](C(=O)N1C[C@H]2[C@@H]([C@H]1C(=O)N[C@H](C#N)C[C@@H]1CCNC1=O)C2(C)C)C(C)(C)C)S(=O)(=O)c1ccc(Cl)s1` [Compound 155] stands over 10000 nM; under `CN([C@H](C(=O)N1C[C@H]2[C@@H]([C@H]1C(=O)N[C@H](C#N)C[C@@H]1CCNC1=O)C2(C)C)C(C)(C)C)S(=O)(=O)c1cccc2ccccc12` [Compound 156], 1400 nM; under `CCCc1ccc(S(=O)(=O)N[C@H](C(=O)N2C[C@H]3[C@@H]([C@H]2C(=O)N[C@H](C#N)C[C@@H]2CCNC2=O)C3(C)C)C(C)(C)C)s1` [Compound 171], 29 nM.
